Results on 11 compounds are retold here after ChEMBL document CHEMBL1201862, “PubChem BioAssay data set” (2004).

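Step 1: Grow cells in 96-well plates. Step 2: Expose to compound for 48 hours at 5 concentrations. Step 3: Interpolate endpoints linearly; if unreached, use highest concentration. GI50 is the concentration that inhibits growth by half.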 Activity calls are given as the source filed them. No stated cut-off is given here; in the data, active = GI50 up to about 1.1 µM and inactive = higher.

Test systems include DU-145; HCC 2998; HCT-116; HL-60; Hs-578T; IGROV-1; M14; NCI-H23; NCI-H460; NCI-H522; NCI/ADR-RES; OVCAR-8; PC-3; RPMI-8226; SK-MEL-28; SK-MEL-5; SW-620; TK-10; HOP-92.
What all share (experiment): growth of human tumour cells (NCI), 48 h

In the case of `COC1=C(OC)C(=O)C(Cc2c(Cl)nc3n2CCS3)=C(C)C1=O`, the GI50 with DU-145 is 17.2 µM (inactive); in the assay on HCC 2998 it was 16.5 µM (inactive); in the assay on HCT-116 it was 11.7 µM (inactive); with HL-60, 2.3 µM (inactive); in the assay on Hs-578T, 19.8 µM (inactive); with IGROV-1 it was 16.9 µM (inactive). In addition, the GI50 in the assay on M14 is 13.1 µM (inactive); in the assay with NCI-H23 it was 12.3 µM (inactive); with NCI-H460, 15 µM (inactive); with NCI-H522, 11.6 µM (inactive); in the assay on NCI/ADR-RES, 12.8 µM (inactive); in the assay with OVCAR-8, 15.3 µM (inactive). Also, the GI50 in the assay with PC-3 is 17.7 µM (inactive); in the assay on RPMI-8226 it was 6.53 µM (inactive); with SK-MEL-28, 14.2 µM (inactive); in the assay with SK-MEL-5 it was 11.7 µM (inactive); in the assay with SW-620, 18 µM (inactive); in the assay with TK-10 it was 15.6 µM (inactive).
For the compound `CC(C)CNCCc1ccccn1`, the GI50 in the assay on DU-145, in the assay with HCC 2998, in the assay on HCT-116, in the assay on HL-60, in the assay on HOP-92 and in the assay on Hs-578T was > 100 µM (inactive) each time. Besides, the GI50 in the assay with IGROV-1, in the assay with M14, with NCI-H23, in the assay with NCI-H460, in the assay with NCI-H522 and in the assay on NCI/ADR-RES was > 100 µM (inactive) throughout. In addition, the GI50 with OVCAR-8, with PC-3, in the assay with SK-MEL-28, in the assay on SK-MEL-5, with SW-620 and in the assay on TK-10 was > 100 µM (inactive) each time.
As for `Nc1nc(O)c2ncn(C3C=CC(CO)C3)c2n1` (configuration not stated), the GI50 in the assay with DU-145, in the assay on HCC 2998, in the assay with HCT-116, in the assay on HOP-92, in the assay with Hs-578T and in the assay on IGROV-1 was > 100 µM (inactive) in each case. In addition, the GI50 in the assay with M14, with NCI-H23, in the assay with NCI-H460, in the assay with NCI-H522, in the assay on NCI/ADR-RES and with OVCAR-8 was > 100 µM (inactive) each time. The GI50 in the assay on PC-3, in the assay with RPMI-8226, in the assay on SK-MEL-28, in the assay on SK-MEL-5, in the assay on SW-620 and in the assay with TK-10 was > 100 µM (inactive) in each case.
In the case of `Cc1ccc(C)c(COCCOCn2ccc(N)nc2=O)c1`, the GI50 in the assay with DU-145 was > 100 µM (inactive); in the assay on HCC 2998, > 100 µM (inactive); in the assay on HCT-116, > 100 µM (inactive); with HL-60, 18.5 µM (inactive); in the assay on HOP-92, > 100 µM (inactive); in the assay on Hs-578T it was > 100 µM (inactive). In addition, the GI50 in the assay on IGROV-1, in the assay with M14, in the assay on NCI-H23, in the assay with NCI-H460, in the assay with NCI-H522 and in the assay with NCI/ADR-RES was > 100 µM (inactive) each time. For the same compound, the GI50 with OVCAR-8, in the assay with PC-3, with SK-MEL-28, with SW-620 and in the assay on TK-10 was > 100 µM (inactive) each time.
Regarding `CC1CCc2c(c(CC3CC(=O)NC(=O)C3)nn2-c2ccccc2)C1` (configuration not stated), the GI50 in the assay on DU-145, in the assay with HCC 2998, with HCT-116, with HL-60, in the assay with HOP-92 and with Hs-578T was > 100 µM (inactive) each time. Further, the GI50 in the assay with IGROV-1 was > 100 µM (inactive); with M14 it was > 100 µM (inactive); in the assay with NCI-H23, > 100 µM (inactive); in the assay on NCI-H460, 99.1 µM (inactive); with NCI/ADR-RES it was 75.2 µM (inactive); in the assay on OVCAR-8, 93.8 µM (inactive). Further, the GI50 in the assay on PC-3 was > 100 µM (inactive); in the assay on RPMI-8226, 80.5 µM (inactive); in the assay with SK-MEL-28, > 100 µM (inactive); with SK-MEL-5 it was > 100 µM (inactive); with SW-620 it was > 100 µM (inactive); in the assay on TK-10 it was > 100 µM (inactive).
Take `C=C(C)C1CC(=O)C(C)=C(O)C1` (configuration not stated): the GI50 in the assay with DU-145, in the assay with HCC 2998, in the assay with HCT-116, in the assay with HL-60, with Hs-578T and in the assay on IGROV-1 was > 100 µM (inactive) each time. Besides, the GI50 in the assay with M14, in the assay on NCI-H23, in the assay on NCI-H460, with NCI-H522, in the assay on NCI/ADR-RES and in the assay with OVCAR-8 was > 100 µM (inactive) throughout. Moreover, the GI50 in the assay on PC-3, in the assay on SK-MEL-28, in the assay with SK-MEL-5, with SW-620 and with TK-10 was > 100 µM (inactive) in each case.
For the compound `Cc1oc2c(c1C)S(=O)(=O)C(C#N)=C(N(C)C)N2`, the GI50 with DU-145, in the assay with HCC 2998, in the assay with HCT-116, with HOP-92, with Hs-578T and in the assay on IGROV-1 was > 100 µM (inactive) throughout. Moreover, the GI50 in the assay on M14, in the assay on NCI-H23, with NCI-H460, with NCI-H522, in the assay on NCI/ADR-RES and in the assay with OVCAR-8 was > 100 µM (inactive) throughout. Besides, the GI50 with PC-3, in the assay on RPMI-8226, in the assay on SK-MEL-28, with SK-MEL-5, in the assay with SW-620 and in the assay with TK-10 was > 100 µM (inactive) throughout.
In the case of `Cc1cnc(/C=N\NC(N)=S)c2cccc(N)c12`, the GI50 in the assay with DU-145 was 0.411 µM (active); with HCC 2998, 0.578 µM (active); with HCT-116, 0.724 µM (active); with HL-60 it was 0.3 µM (active); with Hs-578T, > 100 µM (inactive); with IGROV-1, 1.75 µM (inactive). In addition, the GI50 in the assay with NCI-H23 is 0.334 µM (active); in the assay with NCI-H460, 0.538 µM (active); with NCI-H522 it was 0.871 µM (active); in the assay on NCI/ADR-RES it was 1.84 µM (inactive); in the assay with OVCAR-8 it was 0.838 µM (active); in the assay on PC-3, 2.27 µM (inactive). In addition, the GI50 in the assay with RPMI-8226 was 0.714 µM (active); in the assay on SK-MEL-28, 3.27 µM (inactive); in the assay with SK-MEL-5, 2.04 µM (inactive); in the assay with SW-620 it was 3.01 µM (inactive); with TK-10, 5.78 µM (inactive).
With `CC(C1CCCC1=O)C1CCCC1=O` (configuration not stated), the GI50 was > 100 µM (inactive) in the assay on DU-145; > 100 µM (inactive) in the assay on HCC 2998; > 100 µM (inactive) in the assay with HCT-116; > 100 µM (inactive) with HL-60; 92 µM (inactive) in the assay on Hs-578T; > 100 µM (inactive) in the assay on IGROV-1. Moreover, the GI50 in the assay with M14, in the assay with NCI-H23, in the assay on NCI-H460, in the assay on NCI-H522, in the assay with NCI/ADR-RES and in the assay on OVCAR-8 was > 100 µM (inactive) throughout. For the same compound, the GI50 in the assay on PC-3, in the assay on SK-MEL-28, in the assay with SK-MEL-5, with SW-620 and with TK-10 was > 100 µM (inactive) each time.
With `CCOc1ccc(NC(=O)C(=O)C(/C(=N/N)C(=O)OC)c2nc3ccc([N+](=O)[O-])cc3nc2O)cc1` (configuration not stated), the GI50 in the assay on DU-145, in the assay with HCC 2998, in the assay with HCT-116, in the assay with HOP-92, with Hs-578T and in the assay with IGROV-1 was > 100 µM (inactive) each time. The GI50 in the assay with M14, with NCI-H23, with NCI-H460, in the assay with NCI-H522, in the assay with NCI/ADR-RES and in the assay on OVCAR-8 was > 100 µM (inactive) in each case. Also, the GI50 was > 100 µM (inactive) with PC-3; 24.2 µM (inactive) with RPMI-8226; > 100 µM (inactive) with SK-MEL-28; > 100 µM (inactive) in the assay on SK-MEL-5; > 100 µM (inactive) with SW-620; > 100 µM (inactive) in the assay on TK-10.
With `CCOc1nc2sc3c(c2c(=O)n1CCSSCCn1c(OCC)nc2sc4c(c2c1=O)CCCC4)CCCC3`, the GI50 in the assay on DU-145, in the assay on HCC 2998, in the assay with HCT-116, in the assay on Hs-578T, in the assay on IGROV-1 and in the assay on M14 was > 100 µM (inactive) throughout. The GI50 is > 100 µM (inactive) with NCI-H23; > 100 µM (inactive) in the assay on NCI-H460; > 100 µM (inactive) in the assay on NCI/ADR-RES; 67.8 µM (inactive) in the assay with OVCAR-8; > 100 µM (inactive) with PC-3; > 100 µM (inactive) in the assay with RPMI-8226. Further, the GI50 in the assay on SK-MEL-28, with SK-MEL-5, in the assay on SW-620 and in the assay with TK-10 was > 100 µM (inactive) each time.
